ChEMBL document CHEMBL1140295, “Synthesis and monoamine transporter binding properties of 2,3-diaryltropanes” (J Med Chem, 2005)

How the values were obtained:
[1] = target: Sodium-dependent dopamine transporter (Homo sapiens, UniProt Q01959); test: Displacement of [3H]WIN-35428 from DAT
[2] = target: Sodium-dependent serotonin transporter (Homo sapiens, UniProt P31645); test: Displacement of [3H]paroxetine from 5HTT
[3] = target: Sodium-dependent noradrenaline transporter (Homo sapiens, UniProt P23975); test: Displacement of [3H]nisoxetine from NET
Sequence of Sodium-dependent noradrenaline transporter (P23975 whole entry): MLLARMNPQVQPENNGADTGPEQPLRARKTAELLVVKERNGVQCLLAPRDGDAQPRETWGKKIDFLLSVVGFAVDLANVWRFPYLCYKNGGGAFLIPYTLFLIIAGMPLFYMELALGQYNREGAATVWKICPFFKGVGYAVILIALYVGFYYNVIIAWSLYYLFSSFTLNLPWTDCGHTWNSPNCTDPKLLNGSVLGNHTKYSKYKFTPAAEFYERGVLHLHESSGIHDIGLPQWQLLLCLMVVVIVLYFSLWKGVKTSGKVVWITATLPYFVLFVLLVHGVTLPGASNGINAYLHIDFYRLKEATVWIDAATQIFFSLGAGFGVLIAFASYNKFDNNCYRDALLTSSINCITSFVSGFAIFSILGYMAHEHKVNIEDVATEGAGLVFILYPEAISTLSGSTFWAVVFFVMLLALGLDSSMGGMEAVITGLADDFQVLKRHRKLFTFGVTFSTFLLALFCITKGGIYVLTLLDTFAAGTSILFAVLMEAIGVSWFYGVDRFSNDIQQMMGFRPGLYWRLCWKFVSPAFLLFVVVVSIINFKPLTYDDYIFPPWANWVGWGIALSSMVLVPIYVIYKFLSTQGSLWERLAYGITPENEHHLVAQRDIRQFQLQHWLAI

[4] = organism: Homo sapiens; test: Selectivity for DAT over 5HTT
[5] = organism: Homo sapiens; test: Selectivity for DAT over NET

Sequence of Sodium-dependent serotonin transporter (P31645 whole entry): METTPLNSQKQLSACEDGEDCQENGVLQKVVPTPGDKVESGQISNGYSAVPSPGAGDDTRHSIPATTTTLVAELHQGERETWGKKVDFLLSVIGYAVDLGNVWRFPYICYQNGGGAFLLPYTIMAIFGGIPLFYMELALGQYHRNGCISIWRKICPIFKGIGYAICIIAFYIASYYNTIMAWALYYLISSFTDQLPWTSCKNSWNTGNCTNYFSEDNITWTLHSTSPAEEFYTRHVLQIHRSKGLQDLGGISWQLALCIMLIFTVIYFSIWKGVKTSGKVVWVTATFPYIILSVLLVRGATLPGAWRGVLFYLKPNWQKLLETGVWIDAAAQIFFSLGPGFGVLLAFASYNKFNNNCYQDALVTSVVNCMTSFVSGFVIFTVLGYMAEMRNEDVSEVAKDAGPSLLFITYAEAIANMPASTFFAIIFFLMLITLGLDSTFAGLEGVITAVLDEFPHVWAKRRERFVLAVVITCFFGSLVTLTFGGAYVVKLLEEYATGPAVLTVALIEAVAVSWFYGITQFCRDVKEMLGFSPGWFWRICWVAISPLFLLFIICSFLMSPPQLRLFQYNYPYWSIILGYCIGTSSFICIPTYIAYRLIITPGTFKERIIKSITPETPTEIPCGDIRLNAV
Sequence of Sodium-dependent dopamine transporter (Q01959 whole entry): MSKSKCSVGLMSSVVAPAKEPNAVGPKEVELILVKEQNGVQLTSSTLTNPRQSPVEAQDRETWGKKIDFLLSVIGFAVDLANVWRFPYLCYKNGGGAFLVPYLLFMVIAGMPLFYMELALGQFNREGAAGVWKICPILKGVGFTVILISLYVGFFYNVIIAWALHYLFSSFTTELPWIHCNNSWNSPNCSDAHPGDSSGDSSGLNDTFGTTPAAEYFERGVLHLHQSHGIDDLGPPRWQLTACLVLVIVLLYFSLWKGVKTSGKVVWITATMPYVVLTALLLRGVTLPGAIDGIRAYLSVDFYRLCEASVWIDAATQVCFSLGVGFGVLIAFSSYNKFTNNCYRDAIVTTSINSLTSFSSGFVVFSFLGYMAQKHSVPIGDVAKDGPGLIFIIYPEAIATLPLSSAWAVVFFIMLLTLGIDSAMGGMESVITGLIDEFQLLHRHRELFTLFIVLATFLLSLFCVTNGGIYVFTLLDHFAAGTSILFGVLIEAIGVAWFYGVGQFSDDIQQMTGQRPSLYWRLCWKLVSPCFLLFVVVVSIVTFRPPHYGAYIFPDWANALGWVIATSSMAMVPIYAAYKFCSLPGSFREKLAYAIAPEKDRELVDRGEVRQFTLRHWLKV

| Compound | IC50 [1] | IC50 [2] | Ki [2] | IC50 [3] | Ki [3] | Selectivity ratio [4] | Selectivity ratio [5] |
| --- | --- | --- | --- | --- | --- | --- | --- |
| Cc1ccc([C@H]2CC3CCC([C@H]2c2ccccc2)N3C)cc1 (some centres not stated) | 1.96 nM | 1100 nM | 100 nM | 480 nM | 280 nM |  |  |
| Cc1ccc([C@H]2C3CCC(C[C@H]2c2ccccc2)N3C)cc1 (some centres not stated) | 540 nM | 11000 nM | 1000 nM | 4700 nM | 2800 nM |  |  |
| Cc1ccc([C@H]2CC3CCC([C@H]2c2ccc(C)cc2)N3C)cc1 (some centres not stated) | 1.35 nM | 1010 nM | 250 nM | 780 nM | 390 nM | 185 | 289 |
| COc1ccc([C@@H]2C3CCC(C[C@@H]2c2ccc(C)cc2)N3C)cc1 (some centres not stated) | 1.23 nM | 1670 nM | 410 nM | 282 nM | 191 nM |  |  |
| Cc1ccc([C@@H]2CC3CCC([C@@H]2c2ccccc2)N3C)cc1 (some centres not stated) | 430 nM | 16000 nM | 1500 nM | 4850 nM | 2920 nM |  |  |
| COC(=O)[C@@H]1C2CC[C@H](C[C@@H]1c1ccc(C)cc1)N2C | 23.4 nM |  |  | 3850 nM | 1930 nM |  |  |
| CN1C2CCC1[C@H](c1ccccc1)[C@H](c1ccccc1)C2 (some centres not stated) | 690 nM | 41000 nM | 3700 nM | 1040 nM | 626 nM |  |  |
| Cc1ccc([C@@H]2CC3CCC([C@@H]2c2ccc(C)cc2)N3C)cc1 (some centres not stated) |  | 10000 nM | 910 nM | 13000 nM | 7800 nM |  |  |
| COc1ccc([C@H]2C3CCC(C[C@H]2c2ccc(C)cc2)N3C)cc1 (some centres not stated) | 238 nM | 1530 nM | 376 nM |  |  |  |  |
| Cc1ccc([C@@H]2C3CCC(C[C@@H]2c2ccccc2)N3C)cc1 (some centres not stated) | 22.4 nM | 45000 nM | 4100 nM | 6100 nM | 3700 nM |  |  |
| COc1ccc([C@@H]2C3CCC(C[C@H]2c2ccc(C)cc2)N3C)cc1OC (some centres not stated) | 980 nM | 16200 nM | 1470 nM | 78000 nM | 46000 nM |  |  |
| Cc1ccc([C@H]2CC3CCC([C@H]2c2ccc(F)cc2)N3C)cc1 (some centres not stated) | 0.9 nM | 100 nM | 25 nM | 132 nM | 61 nM |  |  |
| CN1C2CCC1[C@@H](c1ccccc1)[C@@H](c1ccccc1)C2 (some centres not stated) | 12.6 nM | 21000 nM | 1900 nM | 920 nM | 550 nM |  |  |
| COc1ccc([C@@H]2C3CCC(C[C@@H]2c2ccc(C)cc2)N3C)cc1OC (some centres not stated) | 23.3 nM | 13700 nM | 1250 nM | 10000 nM | 6000 nM |  |  |
